Tests used:
mouse PXR = molecular target: T1, mouse PXR (Mus musculus, UniProt O54915); test: GAL-mouse PXR luciferase reporter gene assay in transfected CV-1 cells; format: cell-based; conditions: for fold activation of GAL-mouse PXR / activation of GAL-mouse PXR (in words): 10 μM; for activation of GAL-mouse PXR (in words): CV-1 cells, FIG. 3(a), FIG. 8(a)
T1 sequence (O54915 104-431): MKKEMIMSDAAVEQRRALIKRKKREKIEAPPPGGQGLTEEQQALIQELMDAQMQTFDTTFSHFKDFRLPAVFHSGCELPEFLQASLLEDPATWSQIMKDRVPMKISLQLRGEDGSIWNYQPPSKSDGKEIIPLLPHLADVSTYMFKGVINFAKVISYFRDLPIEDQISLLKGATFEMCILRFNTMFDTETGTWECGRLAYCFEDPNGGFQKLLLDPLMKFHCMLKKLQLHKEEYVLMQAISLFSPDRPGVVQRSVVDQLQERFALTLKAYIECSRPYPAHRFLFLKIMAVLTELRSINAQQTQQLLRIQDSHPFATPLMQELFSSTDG
Description: (§1) CV-1 cells were transiently transfected with a GAL-mouse PXR expression vector, a GAL4 reporter construct, and a β-galactosidase vector as an internal control. Where noted, the bile acid transporter NTCP was added to the transfection to promote the transport of membrane-impermeable bile acids. Transfected cells were exposed to the indicated compounds (10 μM each), and fold activation was determined using luciferase and β-galactosidase enzyme activity assays. […] The transfected CV-1 cells were treated with multiple concentrations of each sterol. Error bars in this figure and subsequent figures represent the standard error of the mean (SEM) from representative experiments.
It is questioned whether β-cholestane-3α, 7α, 12α-triol (Triol) levels were elevated in whole liver extracts from CYP27 −/− mice. To show the level of 5β-cholestane-3α, 7α, 12α-triol in mouse liver extract, wild-type or CYP27 −/−mouse liver tissue (0.5 g) was extracted with 7.5 ml of ethyl acetate/methanol (2:1, vol/vol) along with 5β-cholestane-3β,5α,6β-triol (25 μg) as an internal control for extraction efficiency. […] The extraction was repeated three times, and the organic fraction was pooled and evaporated. To remove the vast excess of cholesterol that interferes with subsequent gas chromatography-mass spectroscopy analysis, the evaporated residue was dissolved in 0.5 ml of chloroform/acetone (35:25, vol/vol) and applied to a Bond Elut SI cartridge (Varian, 500 mg). Cholesterol was removed by washing with 6 ml of chloroform/acetone (35:25, vol/vol), and sterols were eluted with 7 ml of chloroform/acetone/methanol (35:25:20, vol/vol/vol). The sterol fraction was evaporated and dissolved in acetonitrile, and a portion was silylated with N,O-bis(trimethylsilyl)-trifluoroacetamide containing 1% trimethylchlorosilane (Pierce). The silylated material was analyzed by using a Shimadzu model GC-17A gas chromatograph with a QP5000 mass spectral detector and a Hewlett-Packard Ultra 2 (cross-linked-siloxane) column. The injector port was kept at 250° C., interface temperature was kept at 280° C., and oven temperature was kept at 50° C. followed by a gradient of 30° C. min^−1 up to 300° C. The electron impact ionization source was at 70 eV. 5β-cholestane-3α, 7α, 12α-triol levels were determined by comparison to a standard curve. For transfection studies, the sterol fraction was dissolved in DMSO and added to the cell-culture media. containing DMEM with 10% delipidated FBS.

CYP3A4 = conditions: reported by Furster & Wikvall 1999; read-out: Michaelis constant (Km) as a CYP3A4 substrate; cited from earlier work
full-length mouse PXR = molecular target: T2, full-length mouse PXR (Mus musculus, UniProt O54915); test: Full-length mouse PXR reporter assay with rat cyp3a regulatory element in CV-1 cells; format: cell-based; conditions: 10 μM, FIG. 3(b)
T2 sequence (O54915 1-431): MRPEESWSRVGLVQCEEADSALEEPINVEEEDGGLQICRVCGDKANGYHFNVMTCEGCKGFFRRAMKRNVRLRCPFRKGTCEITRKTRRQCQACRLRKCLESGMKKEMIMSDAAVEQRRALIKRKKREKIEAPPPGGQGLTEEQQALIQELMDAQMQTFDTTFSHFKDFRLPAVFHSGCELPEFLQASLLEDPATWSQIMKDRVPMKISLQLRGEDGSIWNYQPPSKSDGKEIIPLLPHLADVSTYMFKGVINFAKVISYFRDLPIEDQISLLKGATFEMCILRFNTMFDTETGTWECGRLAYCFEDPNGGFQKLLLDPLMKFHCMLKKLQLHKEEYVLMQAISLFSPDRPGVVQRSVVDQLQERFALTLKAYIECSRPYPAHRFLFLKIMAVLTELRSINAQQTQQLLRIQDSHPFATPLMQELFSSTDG
Description: as §1, with “assays. PCN refers to pregnenolone-16α-carbonitrile which is an effective agonist to mouse PXR.” for “assays.”, “experiments. In some cases, the error bars are not visible because they are negligible relative to the scale of the figure” for “experiments.”
To further confirm that 5β-cholestane-3α, 7α, 12α-triol and 5β-cholestan-3α, 7α, 12α, 25-tetrol activate mouse PXR, the effect of these compounds on full-length mouse PXR was examined using a reporter construct containing a regulatory element from the rat cyp3a gene that binds to the DNA binding domain of mouse PXR. Blumberg et al., SXR, a novel steroid and xenobioticsensing nuclear receptor, Gene & Dev. 12: 3195-3205 (1998).

[1] = molecular target: T3, human PXR ligand binding domain (Homo sapiens, UniProt O75469); test: In vitro ligand displacement assay with [3H]SR12813; conditions: 37.5 nM [3H]SR12813; 5 μM hyperforin, 30 μM Triol, 30 μM Tetrol; FIG. 4
T3 sequence (O75469 107-434): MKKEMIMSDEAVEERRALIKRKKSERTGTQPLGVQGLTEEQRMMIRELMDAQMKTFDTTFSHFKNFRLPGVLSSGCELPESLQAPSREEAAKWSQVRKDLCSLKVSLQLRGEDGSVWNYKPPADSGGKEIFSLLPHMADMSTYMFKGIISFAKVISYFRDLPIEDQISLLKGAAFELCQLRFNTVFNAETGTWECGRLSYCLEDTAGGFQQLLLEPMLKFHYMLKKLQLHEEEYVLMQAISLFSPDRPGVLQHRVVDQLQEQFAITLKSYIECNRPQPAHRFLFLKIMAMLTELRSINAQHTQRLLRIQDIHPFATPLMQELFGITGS
Description: The amount of [^3H]SR12813 associated with human PXR is expressed in cpm.
To determine whether a molecule or compound interacts directly with a PXR or is a PXR ligand, an in vitro ligand displacement assay is commonly used. […] In the ligand displacement assay, the ligand binding domain of a PXR is synthesized or expressed and purified. A known PXR ligand is radio-labeled and incubated with the purified ligand binding domain of the PXR. A molecule or compound suspected to be a PXR ligand is then added into the incubated mixture. Radioactivity reading is taken using a scintillation counter. If the molecule or compound competes with the known PXR ligand for the ligand binding domain of the PXR, the molecule or compound is expected to displace some of the radio-labeled known PXR agonist and reduce the radioactivity reading. Accordingly, the reduction of radioactivity reading indicates whether the molecule or compound is a PXR ligand and the extent to which the molecule or compound competes with the known PXR ligand.
An in vitro ligand displacement assay was used to determine whether 5β-cholestane-3α, 7α, 12α-triol interacts directly with the ligand binding domain of PXR. Because radiolabeled [^3H]SR12813 are available for human PXR but not mouse PXR, human PXR was used to examine whether 5β-cholestane-3α, 7α, 12α-triol could compete for binding of human PXR to a tritiated SR12813. […]

CYP3A = conditions: cited from earlier work
mice = test: Tribromoethanol-induced sleep test; format: in vivo, mouse; conditions: i.p. 0.35 mg/g
Description: Wild type and cyp27-null mice received an i.p. injection of tribromoethanol, and their individual sleep times are plotted. Wild type mice are represented by squares and CYP27-null mice (CYP27 −/−) are represented by circles. Wild type male, n=6; cyp27-1-male, n=5; Wild type female, n=6; cyp27-1-female, n=6. **, P<0.01; ***, P<0.001.
Because PXR is a master regulator of small-molecule clearance, continuous activation of PXR in CYP27-null mice should produce a physiologic state of enhanced resistance to endogenous and exogenous toxins. To test this in a physiological setting, mice received an i.p. injection of the anesthetic agent tribromoethanol (0.35 mg/g of body weight). Drug-induced anesthesia was measured until the animals had regained sufficient consciousness to fully right themselves. […] Thus, the tribromoethanol-induced sleep test provides a direct and quantitative measure of hepatic PXR activity in live animals. […] In female mice, the difference was even more significant: 35.8±1.6 min for CYP27-null mice compared with 49.6±2.0 min for WT (P<0.001). […] When 5β-cholestane-3α, 7α, 12α-triol itself is accumulating to pathological levels, the ability of this sterol to activate cyp3a11 (FIG. 5) becomes highly significant as CYP3A establishes an alternate or salvage pathway for the elimination of excess 5β-cholestane-3α, 7α, 12α-triol (FIG. 1). […]

## C[C@H](CCCC(C)(C)O)[C@H]1CC[C@H]2[C@@H]3[C@H](O)C[C@@H]4C[C@H](O)CC[C@]4(C)[C@H]3C[C@H](O)[C@]12C [5β-cholestane-3α, 7α, 12α, 25-tetrol]
Mouse PXR
  fold activation of GAL-mouse PXR: 16 fold

## CC(C)CCC[C@@H](C)[C@H]1CC[C@H]2[C@@H]3[C@H](O)C[C@@H]4C[C@H](O)CC[C@]4(C)[C@H]3C[C@H](O)[C@]12C [5β-cholestane-3α, 7α, 12α-triol]
CYP3A4
  Km: 6 µM
Mouse PXR
  EC50: ≥ 3 µM
  fold activation of GAL-mouse PXR: 31 fold
full-length mouse PXR
  activation of full-length mouse PXR (in words): activated full-length mouse PXR

## CC(C)CCC[C@@H](C)[C@H]1CC[C@H]2[C@@H]3C[C@@H](O)[C@@]4(O)C[C@@H](O)CC[C@]4(C)[C@H]3CC[C@]12C [5β-cholestane-3β,5α,6β-triol]
Mouse PXR
  activation of GAL-mouse PXR (in words): does not activate mouse PXR

## CC(CCC[C@@H](C)[C@H]1CC[C@H]2[C@@H]3[C@H](O)C[C@@H]4C[C@H](O)CC[C@]4(C)[C@H]3C[C@H](O)[C@]12C)C(=O)O (stereo partly drawn) [5β-cholestanoic acid-3α,7α,12α-triol]
Mouse PXR
  activation of GAL-mouse PXR (in words): failed to activate mouse PXR
[1]
  displacement of [3H]SR12813 from human PXR (in words): failed to displace

## COc1cc2c(cc1O)CCN[C@]21CS[C@@H]2c3c(OC(C)=O)c(C)c4c(c3[C@H](COC1=O)N1[C@@H]2[C@H]2c3c(cc(C)c(OC)c3O)C[C@@H]([C@@H]1O)N2C)OCO4 [ET-743, Ecteinascidin-743]
CYP3A
  inhibition of the induction of CYP3A by SR12813 (in words): completely inhibits

## C[C@H](CCC(=O)O)[C@H]1CC[C@H]2[C@@H]3[C@H](O)C[C@@H]4C[C@H](O)CC[C@]4(C)[C@H]3CC[C@]12C [chenodeoxycholic acid]
Mouse PXR
  activation of GAL-mouse PXR (in words): failed to activate mouse PXR

## OCC(Br)(Br)Br [tribromoethanol]
mice; female CYP27-null mice
  time to awakening after tribromoethanol (mean±SEM): 35.8 ± 1.6 min
mice; female WT mice
  time to awakening after tribromoethanol (mean±SEM): 49.6 ± 2.0 min
mice; male CYP27-null mice
  time to awakening after tribromoethanol (mean±SEM): 30.6 ± 2.9 min
mice; male WT mice
  time to awakening after tribromoethanol (mean±SEM): 42.2 ± 1.9 min

Reference: patent US20040019027A1, “Method of treating cerebrotendinous xanthomatosis” (priority 2002, published 2004)
